Experimental data from publication PMC7060258 (Scientific Reports, 2020).
No end group written: not given here.

Tested on: murine neuroblastoma Neuro2a cells
Experiment: Intracellular ROS formation level (H2DCF-DA)
Assay type: cell-based
Experimental: We estimated whether rHCIQ2c1 is able to inhibit reactive oxygen species (ROS) production. After incubation of Neuro2a cells with rHCIQ2c1 (up to 10 µM) and 6-OHDA (25 µM), ROS content was evaluated by measurement of dichlorofluorescin intensity.
The intracellular ROS level was detected using 2,7-dichlordihydrofluorescein diacetate (H2DCF-DA) solution (Molecular Probes, final concentration 10 µM). In this study, mouse neuroblastoma Neuro2a cells seeded on 96-well plates were washed twice with serum-free DMEM and thereafter incubated for 1 h in serum-free MEM medium in the presence of compounds in concentrations from 10 pM to 10 µM. Cell were treated with 6-OHDA (25 μM) for 30 min at 37 °C with 5% CO2. Followed by treatment with 6-OHDA, the cells were washed once with PBS. After washing with serum-free DMEM medium, the cells were loaded with H2DCF-DA for 30 min. The intensity of dichlorofluorescin fluorescence was measured with plate reader PHERAstar FS (BMG Labtech, Germany) at λex = 485 nm and λem = 518 nm. The cytoprotective effect of peptides and the increase in cell viability under their action was calculated as a percentage, taking the cell viability treated with 6-OHDA as 100%.

## rHCIQ2c1: recombinant Kunitz-peptide of Heteractis crispa, most prevalent isoform, mature peptide 58 aa, expressed in E. coli (IQGNICSEPKKVGRCRGSFPRFYFDSETGKCTPFIYGGCGGNGNNFETLHACRAICRA; ends and bridges not checked; cysteine pairing not given here)
0.001–0.01 µM peptide, pretreatment 1 h, 6-OHDA 25 µM 30 min, dichlorofluorescin fluorescence
  Reduction of ROS production: 34%
Up to 10 µM peptide, 6-OHDA 25 µM
  Concentration dependence of ROS level: An increase in ROS formation when the concentration of rHCIQ2c1 increases from 0.01 to 1 µM, and its decrease again at 10 µM
